Source: patent US20240408064A1, “RAS INHIBITORS, COMPOSITIONS AND METHODS OF USE THEREOF” (GENETOLEAD INC., priority 2021, published 2024)
Entries after “also recorded” stand apart in the source; their conditions may differ. Where two headings read alike, the source gives them in different places.

Tests used:
[1] = target: T1, HRas^G12V (Homo sapiens (Human), UniProt P01112, G12V); experiment: 19F DLB (ligand-observed 19F NMR) score; type: binding; set-up: scale not given here
Summary of the method: (§1)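 Fragments were pooled at 240 μM each with 50 μM HRas G12V in 25 mM sodium phosphate pH 7.4, 150 mM NaCl, 5 mM MgCl2, 1 mM TCEP-d16, 10% D2O, and screened by 1H-decoupled 1D 19F NMR at 600 MHz (64 scans, 5 s relaxation delay). T2-CPMG data were collected with 1 ms echoes and eight delays from 1 to 800 ms.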

[2] = target: T1, HRas^G12V; experiment: Dissociation constant by NMR (1H/15N Fast-HSQC, 1H 1D protein-observed); type: binding; conditions: HRas^G12V; read-out: NMR Kd
Procedure: All NMR experiments were collected using 3 mm NMR tubes on a 600 MHz Bruker Avance III spectrometer equipped with a QCI helium cryoprobe and a SampleJet sample changer. The buffer used for NMR experiments was 25 mM sodium phosphate pH 7.4, 150 mM NaCl, 5 mM MgCl2, 1 mM TCEP-d16, 10% D2O. Data were processed using Bruker TopSpin.
(§2) ^1H/^15N Fast-HSQC experiments (Mori et al., Journal of Magnetic Resonance, Series B, Volume 108, Issue 1, July 1995, Pages 94-98) were recorded at a protein concentration of 50-100 μM.
(§3) Dissociation constants were obtained by monitoring changes in chemical shifts as a function of ligand concentration. The changes in chemical shifts (d) were calculated according to the following equation (Williamson, Progress in Nuclear Magnetic Resonance Spectroscopy, Volume 73, August 2013, Pages 1-16): d=√(1/2[δ_H^2+[…]]), Where δ are the changes in chemical shift in ppm for ^1H and ^15N and the correction factor (α) was set at 0.15.
(§4) ^1H 1D protein-observed experiments were recorded with 15-50 μM protein. The standard Bruker 1D ^1H sequence with excitation sculpting (zgesgp) was employed. A relaxation delay of 1 s was employed in order to use 256 scans while still keeping experimental time fairly short. Changes in protein chemical shift or peak intensity in the methyl region were monitored against compound concentration.

[3] = target: T2, KRAS^G12D-GDP (Homo sapiens (Human), UniProt P01116, G12D); experiment: 19F T2-CPMG score, KRAS^G12D-GDP; type: binding
Procedure: (§5) Since the fragment library was curated using phosphate buffer, 25 mM sodium phosphate pH 7.4, 150 mM NaCl, 5 mM MgCl2, 1 mM TCEP-d16, 10% D2O Fresh TCEP was used for experiments. Screening was performed using ^1H-decoupled 1D ^19F experiment Bruker experiment (zgfhigqn.2) with 64 scans and a relaxation delay of 5 seconds. 50 μM HRas^G12V and 240 μM of each fragment in pools (mixtures) were used.
(§6) Hit confirmation was performed using the same ^19F experiment as the screen. Ligand-observed 1D ^1H, protein-observed 1D ^1H, ^1H T2-CPMG as well as Saturation Transfer Difference (STD) experiments were also run on the same samples. Ligand-observed 1D ^1H was run using the standard Bruker sequence with excitation sculpting (zgesgp) with a relaxation delay of 10 seconds and 16 scans per spectrum. Protein-observed 1D ^1H was performed using the same sequence with a relaxation delay of 1 second and 256 scans in order to increase the signal-to-noise of the protein resonances, while keeping the experimental time relatively short. The ^1H T2-CPMG experiment employed a modified version of the Bruker 1D ^1H zgesgp experiment with the addition of a CPMG pulse train after the first 90° excitation pulse. Total duration for each spin echo was fixed at 1 ms (τ=500 μs), while the number of echoes in the pulse train was varied according to the total time (T). The number of scans for each spectrum was 4 and eight delay times were run on each sample, ranging from 1 ms to 800 ms.
(§7) The activity of compounds of the invention regarding KRAS^G12D-GDP was measured in the same as in Example 80. The results obtained with the compounds in the various assays described above are depicted in Table 23.

[4] = target: T2, KRAS^G12D-GDP; experiment: 19F DLB score, KRAS^G12D-GDP; type: binding; set-up: scale not given here
Procedure: as §5, §6, §7

[5] = target: T1, HRas^G12V; experiment: 19F T2-CPMG NMR score; type: binding
Summary of the method: as §1

[6] = target: T1, HRas^G12V; experiment: Overall binding/activity in the various assays (NMR consensus binding)
Summary of the method: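 Fragments (240 µM each, pooled) screened against 50 µM HRas^G12V in 25 mM sodium phosphate pH 7.4, 150 mM NaCl, 5 mM MgCl2, 1 mM TCEP-d16 by 1H-decoupled 1D 19F NMR. Hits confirmed by ligand- and protein-observed 1D 1H, STD and T2-CPMG (aggregation check); consensus binding ranked, with 15N HSQC for sites and Kd.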

[7] = target: T2, KRAS^G12D-GDP; experiment: NMR Kd, KRAS^G12D-GDP; type: binding; conditions: 1H 1D protein-observed NMR, read-out: 1H 1D PO NMR Kd
Procedure: as §2, §3, §4, §7

[8] = target: T2, KRAS^G12D-GDP; experiment: Overall activity in the various assays, KRAS^G12D-GDP; type: binding
Procedure: as §7

[9] = Solubility and free-state aggregation in the NMR screen; type: physicochemical; conditions: NMR buffer
Description: Fragment screening has been performed using a library containing 461 fragments that has been designed using cheminformatics parameters such as Rule of Three and PAINS analysis. All fragments have been curated by ^1H and ^19F NMR for structure verification, purity, solubility in phosphate buffer and lack of apparent aggregation under these conditions. Fragments were pooled according to chemical compatibility resulting in 31 different pools to increase screening throughput. The library was provided by NMX Research in Solutions Inc.
Because of its power to probe the intrinsically weak interactions (Kd) between targets and low-molecular weight fragments, NMR fragment-based lead discovery (FBLD) is a very useful biophysical method in early stage drug discovery, especially for challenging target proteins; including those with shallow binding pockets. Since FBLD screens are performed using low-molecular weight compounds (fragments) with lower structural complexity, the same chemical space can be covered using a smaller number of drug-like fragments versus use of large libraries of higher-molecular weight lead-like compounds as in high throughput screening (HTS) campaigns. Therefore, FBLD has a much higher hit rate than HTS using only several hundred to several thousand compounds in comparison with approximately 1 million compounds for HTS. Also, the small size of the compounds screened in FBLD means a better chance to fully match the interactions with small or transient pockets within the target protein, where these less tractable pockets cannot be accessed with standard classical HTS methods. […] We expect this methodology to be more advantageous than classical HTS methods for expediting the time from hit to lead (H2L) and allows for rapid access to high quality leads with lower attrition rates in subsequent lead optimization (LO) campaigns toward pre-clinical candidate selection. FBLD screening by NMR involves a “consensus binding” approach where several distinct NMR experiments (DLB, STD, CPMG) are applied along with a free-state aggregation detection method (T2-CPMG) to rank the compounds for their affinity to the receptor (HRAS in this case) whilst simultaneously monitoring the solution behavior and critical quality attributes of each compound. The latter helps to eliminate artifact binders which are highly problematic. We performed a fluorine screen involving 461 compounds that were derived from a highly curated fragment library. Moreover, two-dimensional ^15N HSQC NMR was also used to validate ligand-binding sites on the target protein. In addition, we employed protein-detected biophysical measurements were employed to determine fragment binding affinities to the target protein (Kd) by HSQC NMR. From the results, we picked the most interesting hit were picked, FS-1255 that was identified based on consensus binding evidence from all NMR detection methods, and based the lack of free-state aggregation by T2-CPMG. We chose to prioritize on FS-1255 which was the most promising fragment hit.

[10] = target: T3, wild type HRAS (Homo sapiens (Human), UniProt P01112); experiment: 19F T2-CPMG score, wild type HRAS; type: binding
Procedure: as §5, §6
(§8) The activity of compounds of the invention regarding wild type HRAS was measured in the same as in Example 80. The results obtained with the compounds in the various assays described above are depicted in Table 2.

[11] = target: T3, wild type HRAS; experiment: 19F DLB score, wild type HRAS; type: binding
Procedure: as §5, §6, §8

Structure (SMILES)	Kd [2] [mM]	19F T2-CPMG Score [3]	19F DLB Score [4]	19F T2-CPMG Score [5]	19F DLB Score [1]	Activity ranking on HRas^G12V (in words) [6]	Solution behaviour in the NMR screen [9]	Binding to HRas^G12V (in words) [6]	further results
CN(C)S(=O)(=O)NCCc1c[nH]c2cc(F)ccc12 [Compound 10004, reference compound]	6.16 to 6.4	9.41	2.06	19.49					19F DLB Score ([1]; @ 50 uM): 5.34 @ 50 uM
CC(=O)N1CCN(C(=O)Cc2c[nH]c3cc(F)ccc23)CC1 [Compound 10040]	4.03 to 9.5	7.49	1.63	12.69	1.64	More active			Kd [7]: 5.2 mM; Activity ranking on KRAS^G12D-GDP (in words) [8]: most active
COc1cc(Cl)ccc1NC(=O)Cc1c[nH]c2cc(F)ccc12 [Compound 10051]							Not soluble	low or no binding	
O=C(Cc1c[nH]c2cc(F)ccc12)N1CCCCC1 [Compound 10053]	1.53	>LOQ	4.89	39.43	5.85	More active			
COC(=O)c1cc(NC(=O)Cc2c[nH]c3cc(F)ccc23)cc(OC)c1 [Compound 10060]							Not soluble	low or no binding	
Cc1ccc(Cl)cc1NC(=O)Cc1c[nH]c2cc(F)ccc12 [Compound 10061]							Not soluble	low or no binding	
CC(C(=O)N1CCC1)c1c[nH]c2cc(F)ccc12 (centres unmarked) [Compound 10066, 1-(azetidin-1-yl)-2-(6-fluoro-1H-indol-3-yl) propan-1-one]	3.51 to 4	9.14	2.22	21.34	2.94	More active			
CN(C)C[C@@H]1CN(C(=O)Cc2c[nH]c3cc(F)ccc23)CCO1 [Compound 10159]	2.95 to 3.43			19.26	3.93	More active			
CCOC(=O)Cc1c[nH]c2cc(F)ccc12 [Compound 11003, ethyl 2-(6-fluoro-1H-indol-3-yl) acetate]		14.19	2.20	11.18	2.23				
CN(C)Cc1[nH]c2cc(F)ccc2c1C(CC(=O)O)c1ccccc1F (centres unmarked) [Compound 11066]				−0.25	0.91	More active			Activity ranking on KRAS^G12D-GDP (in words) [8]: most active

Continued, in another order:

Kd [2] [mM]	19F T2-CPMG Score [3]	19F DLB Score [4]	19F T2-CPMG Score [5]	19F DLB Score [1]	Activity ranking on HRas^G12V (in words) [6]	Solution behaviour in the NMR screen [9]	Binding to HRas^G12V (in words) [6]	Structure (SMILES)	further results
2.32	>LOQ	2.46	38.3	3.12	More active			CC(=O)Nc1cccc(NC(=O)Cc2c[nH]c3cc(F)ccc23)c1 [Compound 10014]	
	>LOQ	2.62	38.83					O=C(Cc1c[nH]c2cc(F)ccc12)Nc1ccccc1 [Compound 10021, 2-(6-fluoro-1H-indol-3-yl)-N-phenyl acetamide]	19F DLB Score ([1]; @ 50 uM): 8.73 @ 50 uM
						Not soluble	low or no binding	N#Cc1ccc(NC(=O)Cc2c[nH]c3cc(F)ccc23)cc1 [Compound 10054]	
						Not soluble	low or no binding	COc1ccc(NC(=O)Cc2c[nH]c3cc(F)ccc23)cc1Cl [Compound 10055]	
						Not soluble	low or no binding	COc1ccc(NC(=O)Cc2c[nH]c3cc(F)ccc23)cc1F [Compound 10056]	
						Not soluble	low or no binding	COc1ccc(NC(=O)Cc2c[nH]c3cc(F)ccc23)cc1C [Compound 10057]	
						Aggregated	low or no binding	O=C(Cc1c[nH]c2cc(F)ccc12)Nc1cccc(F)c1 [Compound 10072]	
			<LLOQ	4.73	More active; also recorded: Most active			CN(C)CC(=O)Nc1cccc(NC(=O)C(C#N)c2c[nH]c3cc(F)ccc23)c1 (centres unmarked) [Compound 11032]	19F T2-CPMG Score [10]: <LLOQ; 19F DLB Score [11]: 5.76
